{"source": "patent US20100179143A1", "about": "“NAPHTHYRIDINE, DERIVATIVES AS P13 KINASE INHIBITORS” (Smithkline Beecham Corporation, priority 2007, published 2010)", "key": {"[1]": {"system": "Class I PI3-kinases", "details": "cited from earlier work"}, "[2]": {"molecular_target": "CK2 protein kinase", "details": "read-out: inhibition of CK2 protein kinase; cited from earlier work"}, "[3]": {"system": "neutrophils", "details": "cited from earlier work"}, "[4]": {"molecular_target": "T1, PI3Kα (Homo sapiens, UniProt P42336)", "T1 construct": "His", "T1 sequence (P42336 whole entry)": "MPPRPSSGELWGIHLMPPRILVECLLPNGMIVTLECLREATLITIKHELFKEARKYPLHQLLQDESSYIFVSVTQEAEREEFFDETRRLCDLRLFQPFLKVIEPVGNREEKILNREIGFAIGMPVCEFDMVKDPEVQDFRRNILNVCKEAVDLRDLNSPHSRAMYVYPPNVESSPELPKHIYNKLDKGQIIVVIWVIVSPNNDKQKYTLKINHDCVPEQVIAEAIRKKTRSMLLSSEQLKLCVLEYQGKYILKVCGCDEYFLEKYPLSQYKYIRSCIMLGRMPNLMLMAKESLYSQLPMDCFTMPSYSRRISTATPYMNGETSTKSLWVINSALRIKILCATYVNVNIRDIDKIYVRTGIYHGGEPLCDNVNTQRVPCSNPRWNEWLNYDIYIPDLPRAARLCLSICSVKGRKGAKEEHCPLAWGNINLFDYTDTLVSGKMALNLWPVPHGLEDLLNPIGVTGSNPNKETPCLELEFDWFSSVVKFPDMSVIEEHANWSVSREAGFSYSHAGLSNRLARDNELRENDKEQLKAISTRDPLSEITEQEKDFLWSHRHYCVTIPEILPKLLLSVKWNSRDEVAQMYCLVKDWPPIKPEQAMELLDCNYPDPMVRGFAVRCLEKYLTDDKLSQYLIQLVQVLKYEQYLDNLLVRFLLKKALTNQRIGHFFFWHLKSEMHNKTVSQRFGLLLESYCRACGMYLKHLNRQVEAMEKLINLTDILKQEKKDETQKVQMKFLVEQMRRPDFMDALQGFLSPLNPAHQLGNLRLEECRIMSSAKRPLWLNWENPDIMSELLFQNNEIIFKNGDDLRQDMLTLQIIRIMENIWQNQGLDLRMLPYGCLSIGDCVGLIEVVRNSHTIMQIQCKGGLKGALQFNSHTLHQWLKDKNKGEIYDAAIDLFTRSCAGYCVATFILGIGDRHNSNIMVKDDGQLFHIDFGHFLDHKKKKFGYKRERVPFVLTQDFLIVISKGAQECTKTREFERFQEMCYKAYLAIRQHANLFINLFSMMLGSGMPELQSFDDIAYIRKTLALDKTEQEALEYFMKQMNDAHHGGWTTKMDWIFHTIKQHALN", "T1 sequence (P27986 whole entry partner)": "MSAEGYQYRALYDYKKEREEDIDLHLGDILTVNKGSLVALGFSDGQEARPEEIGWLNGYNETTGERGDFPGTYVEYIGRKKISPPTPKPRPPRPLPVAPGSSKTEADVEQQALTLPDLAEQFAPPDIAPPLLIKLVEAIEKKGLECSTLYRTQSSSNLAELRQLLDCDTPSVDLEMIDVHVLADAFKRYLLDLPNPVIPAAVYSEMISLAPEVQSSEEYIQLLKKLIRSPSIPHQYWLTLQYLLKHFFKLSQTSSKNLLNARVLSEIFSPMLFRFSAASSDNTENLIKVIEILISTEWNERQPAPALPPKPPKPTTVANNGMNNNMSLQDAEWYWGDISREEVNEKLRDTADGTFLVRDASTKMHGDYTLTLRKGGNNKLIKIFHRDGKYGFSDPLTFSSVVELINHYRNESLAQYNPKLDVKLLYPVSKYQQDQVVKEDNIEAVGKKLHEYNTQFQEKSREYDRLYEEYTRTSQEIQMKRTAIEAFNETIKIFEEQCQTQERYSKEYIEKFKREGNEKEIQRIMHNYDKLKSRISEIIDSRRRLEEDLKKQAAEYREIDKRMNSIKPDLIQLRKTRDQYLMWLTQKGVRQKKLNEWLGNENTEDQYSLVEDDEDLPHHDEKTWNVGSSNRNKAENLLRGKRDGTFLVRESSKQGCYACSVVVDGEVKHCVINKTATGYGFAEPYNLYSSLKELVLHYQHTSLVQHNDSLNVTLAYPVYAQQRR", "assay": "PI3K alpha Leadseeker SPA Assay", "format": "biochemical", "details": "in at least one experimental run; read-out: IC50 against PI3Kα", "method": "PI3K alpha Leadseeker SPA Assay\nCompounds of the present invention were tested according to the following assays and found as inhibitors of PI3 kinases, particularly PI3Kα. The exemplified compounds were tested and found active against PI3Kα. The IC50's ranged from about 1 nM to 10 μM.\nSPA imaging beads are microspheres containing scintillant which emit light in the red region of the visible spectrum. As a result, these beads are ideally suited to use with a CCD imager such as the Viewlux. The Leadseeker beads used in this system are polystyrene beads that have been coupled with polyethyleneimine. When added to the assay mixture, the beads absorb both the substrate (PIP2) and product (PIP3). Adsorbed P^33-PIP3 will cause an increase in signal, measured as ADUs (analog to digital units). This protocol details the use of the PEI-PS Leadseeker beads for assays using His-p110/p85 PI3K alpha.\nSolid compounds are typically plated with 0.1 μl of 100% DMSO in all wells (except column 6 and 18) of a 384-well, flat bottom, low volume plate (Greiner 784075). The compounds are serially diluted (3-fold in 100% DMSO) across the plate from column 1 to column 12 and column 13 to column 24 and leave column 6 and 18 containing only DMSO to yield 11 concentrations for each test compound.\nThe assay buffer contains MOPS (pH 6.5), CHAPS, and DTT. PI3K alpha and PIP2 (L-alpha-D-myo-Phosphatidylinositol 4,5-bisphosphate [P1(4,5)P2]3-O-phospho linked, D(+)-sn-1,2-di-O-octanoylglyceryl, CellSignals #901) are mixed and incubated in the plate with compound for 30 min prior to starting the reaction with the addition of P^33-ATP and MgCl2 (reagents added using Zoom). Enzyme-free wells (column 18) are typically done to determine the low control. PEI-PS Leadseeker beads in PBS/EDTA/CHAPS are added (by Multidrop) to quench the reaction, and the plates are allowed to incubate for at least one hour (typically overnight) before centrifugation. The signal is determined using a Viewlux detector and is then imported into curve fitting software (Activity Base) for construction of concentration response curves. The percent inhibition of activity was calculated relative to high controls (C1, 0.1 μl DMSO in column 6, rows A-P)) and low controls (C2, 5 μl of 40 uM PIP2 in buffer in column 18, rows A-P) using, 100*(1−(U1−C2)/(C1-C2)). The concentration of test compound yielding 50% inhibition was determined using the equation, y=((Vmax*x)/(K+x))+Y2, where “K” was equal to the IC50. The IC50 values were converted to pIC50 values, i.e., −log IC50 in Molar concentration."}, "[5]": {"system": "neutrophils", "details": "treatment of neutrophils; Thelen et al. 1994; cited from earlier work"}}, "note": "Read-outs that look alike come from different tables or passages of the source.", "data": [{"compound": "O=c1cc(N2CCOCC2)oc2c(-c3ccccc3)cccc12", "note": "[LY294002]", "values": [{"measurement": "IC50", "setting": "[1]; Fruman et al. 1998, read-out: IC50 against each of these PI3-kinases", "result": "15000 to 20000", "unit": "nM"}, {"measurement": "IC50", "setting": "[2]", "result": "5000 to 10000", "unit": "nM"}, {"measurement": "neutrophil migration", "setting": "[3]", "result": "block"}, {"measurement": "superoxide release", "setting": "[3]", "result": "block"}]}, {"compound": "CN1CCN(c2ccnc3ccc(-c4cncc(S(=O)(=O)Nc5ccc(F)cc5F)c4)nc23)CC1", "note": "[Example 32, N-(2,4-difluorophenyl)-5-[8-(4-methyl-1-piperazinyl)-1,5-naphthyridin-2-yl]-3-pyridinesulfonamide]", "values": [{"measurement": "IC50", "setting": "[4]", "result": 50, "unit": "nM"}]}, {"compound": "NS(=O)(=O)c1cncc(-c2ccc3nccc(-c4cccc(OC(F)(F)F)c4)c3n2)c1", "note": "[Example 9, 5-(8-{3-[(trifluoromethyl)oxy]phenyl}-1,5-naphthyridin-2-yl)-3-pyridinesulfonamide]", "values": [{"measurement": "IC50", "setting": "[4]", "result": 27, "unit": "nM"}]}, {"compound": "COC[C@H]1OC(=O)c2coc3c2[C@@]1(C)C1=C(C3=O)[C@@H]2CCC(=O)[C@@]2(C)C[C@H]1OC(C)=O", "note": "[wortmannin]", "values": [{"measurement": "IC50", "setting": "[1]; wortmannin, read-out: IC50 against each of the various Class I PI3-kinases", "result": "1 to 10", "unit": "nM"}, {"measurement": "fMLP-induced respiratory burst response", "setting": "[5]", "result": "prevents the fMLP-induced respiratory burst response"}, {"measurement": "neutrophil migration", "setting": "[3]", "result": "block"}, {"measurement": "superoxide release", "setting": "[3]", "result": "block"}]}, {"compound": "CS(=O)(=O)Nc1ccc(-c2ccnc3ccc(-c4cncc(S(N)(=O)=O)c4)nc23)cc1", "note": "[Example 11, 5-(8-{4-[(methylsulfonyl)amino]phenyl}-1,5-naphthyridin-2-yl)-3-pyridinesulfonamide]", "values": [{"measurement": "IC50", "setting": "[4]", "result": 6, "unit": "nM"}]}, {"compound": "c1ccc(-c2n[nH]cc2-c2ccc3nccc(-c4ccncc4)c3n2)cc1", "note": "[Example 5, 2-(3-phenyl-1H-pyrazol-4-yl)-8-(4-pyridinyl)-1,5-naphthyridine]", "values": [{"measurement": "IC50", "setting": "[4]", "result": 31, "unit": "nM"}]}, {"compound": "CN(C)S(=O)(=O)c1cc(-c2ccc3nccc(-c4ccncc4)c3n2)cnc1N", "note": "[Example 2, 2-amino-N,N-dimethyl-5-[8-(4-pyridinyl)-1,5-naphthyridin-2-yl]-3-pyridinesulfonamide]", "values": [{"measurement": "IC50", "setting": "[4]", "result": 3, "unit": "nM"}]}, {"compound": "OCc1ccc(-c2ccc3nccc(-c4ccncc4)c3n2)o1", "note": "[Example 1, {5-[8-(4-pyridinyl)-1,5-naphthyridin-2-yl]-2-furanyl}methanol]", "values": [{"measurement": "IC50", "setting": "[4]", "result": 40, "unit": "nM"}]}]}
